Experimental findings from article PMC12903969, “Discovery of a Novel and Potent Kir4.1 Inhibitor as a Safe and Rapid‐Onset Antidepressant Agent in Mice” (Advanced Science, 2025) are described below.

Molecules are shown by their SMILES. Like-named read-outs stand apart in the source and are kept apart here. Where only a bound is given, the exact number is not on record here.

What is called inhibition is the relative decrease from the control value, in per cent. As a reminder, the IC50 is the concentration needed to halve the response being measured.

One assay concerns the target T1, Kir4.1 (Homo sapiens, UniProt P78508).
T1 construct: host or cells: CHO-K1
T1 sequence (P78508 1-379): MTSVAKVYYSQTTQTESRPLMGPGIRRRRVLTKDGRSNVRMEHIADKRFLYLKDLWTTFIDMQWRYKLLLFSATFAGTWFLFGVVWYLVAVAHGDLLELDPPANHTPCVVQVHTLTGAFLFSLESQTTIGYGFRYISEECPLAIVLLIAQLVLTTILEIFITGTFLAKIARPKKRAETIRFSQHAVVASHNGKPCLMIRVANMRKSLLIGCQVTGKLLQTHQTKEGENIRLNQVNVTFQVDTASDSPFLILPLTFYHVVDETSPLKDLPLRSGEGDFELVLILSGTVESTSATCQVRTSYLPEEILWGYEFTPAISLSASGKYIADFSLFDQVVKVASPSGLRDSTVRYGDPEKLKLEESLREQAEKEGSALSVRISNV
The assay can be described thus: Whole-cell patch clamp, Kir4.1 currents in transfected CHO-K1 cells. Format: cell-based. The conditions noted are these: for inhibition at 0.5 µM: CHO-K1, 0.5 μM; for inhibition at 1 µM: CHO-K1, 1 μM; for inhibition at 10 µM: CHO-K1, 10 μM. How it is done: Plasmids encoding WT human potassium channels Kir1.1, Kir2.1, Kir2.2, Kir4.1, and Kir4.2 were obtained from the Beijing Genomics Institute. All point mutations were constructed using the QuickChange II Site‐Directed Mutagenesis Kit (Stratagene) and subsequently verified by sequencing.
CHO‐K1 cells were maintained in DMEM/F12 growth medium containing 10% fetal bovine serum. Plasmids encoding the target genes (3600 ng) and enhanced green fluorescent protein (400 ng) were cotransfected into cells using Lipofectamine 2000 (Invitrogen) in accordance with the manufacturer's instructions. Cells were seeded onto poly‐d‐lysine (PDL)‐coated glass coverslips 1 h prior to electrophysiological recordings. All cells were cultured under standard conditions of 5% CO2 at 37 °C.
Whole‐cell patch‐clamp recordings were obtained either in transiently transfected CHO‐K1 cells or in primary cultured astrocytes at room temperature using standard patch‐clamp techniques with an Axopatch‐700B amplifier (Axon Instruments). The signals were filtered at 2 kHz and sampled at 20 kHz using the Digidata 1440A interface (Axon Instruments). The resistance of borosilicate glass pipettes was typically 2–4 MΩ when filled with the internal solution. Drug application was facilitated using a BPS perfusion system (ALA Scientific Instruments). Macroscopic currents generated by expressed potassium channels were recorded under the voltage‐clamp conditions with an internal pipette solution composed of (in mM): 140 KCl, 5 NaCl, 1 CaCl2, 1 MgCl2, 10 HEPES, and 10 EGTA, pH 7.2 adjusted with KOH. The external solution contained (in mM): 140 NaCl, 5 KCl, 2 CaCl2, 1 MgCl2, 10 glucose, and 10 HEPES, pH 7.4 adjusted with NaOH. Currents were elicited with a hyperpolarized voltage at −120 mV from the holding potential of −80 mV, followed by a ramp voltage depolarizing to +50 mV. Astrocytic resting membrane potentials were recorded under current‐clamp conditions (I = 0 pA) using standard internal and external solutions, determined immediately after achieving whole‐cell mode.
(In general: In patch-clamp work, channel activity is measured electrically.)

Assay [1] relates to MDA-MB-468 breast cancer cells. The experiment in a line: Cytotoxicity test (CCK-8). Format: cell-based. The conditions noted are these: read-out: IC50 ± SD (μM) for MDA-MB-468 Inhibition. How it is done: Cytotoxicity of all the tested compounds was determined using the cell counting kit‐8 (CCK‐8) assay kit (Beyotime, Shanghai, China). Briefly, MDA‐MB‐468 was cultured in L15 medium and plated in 96‐well plates at a density of 12,000 cells per well for 24 h at 37 °C in a 5% CO2 incubator. The tested compounds were dissolved in DMSO and diluted with culture medium (DMSO final concentration < 0.4%). Then the cells were treated with compounds (0.41, 1.23, 3.70, 11.11, 33.33, 100.00 µM) for 48 h. After treatments, removal of the supernatant liquor, 100 µL of new media diluted CCK‐8 solution (10% CCK‐8) was added into each well and incubated at 37 °C for 2 h. The absorbance of the mixture was directly measured at 450 nm. The results are presented as a percentage of the control.

[2] abbreviates: +50 mV, read-out: Kir4.1 Inhibition ± SD (%) at 1 μM, +50 mV.
Where [3] appears, read: -120 mV, read-out: Kir4.1 Inhibition ± SD (%) at 1 μM, -120 mV.
The mark [4] stands for this setting: +50 mV, read-out: Kir4.1 Inhibition ± SD (%) at 10 μM, +50 mV.
The mark [5] stands for this setting: -120 mV, read-out: Kir4.1 Inhibition ± SD (%) at 10 μM, -120 mV.
Setting [6] is: Homo sapiens, MDA-MB-468, MDA-MB-468 breast cancer cells.

For `c1ccc2c(c1)oc1ccc(Nc3ccnc(NCCCN4CCOCC4)c3)cc12` [JX3219, N^4-(dibenzo[b,d]furan-2-yl)-N^2-(3-morpholinopropyl)pyridine-2,4-diamine], the inhibition at 0.5 µM on Kir4.1 (+50 mV, read-out: Kir4.1 Inhibition ± SD (%) at 0.5 μM, +50 mV) worked out at 49.6 ± 6.47%; on Kir4.1 (-120 mV, read-out: Kir4.1 Inhibition ± SD (%) at 0.5 μM, -120 mV), 40.2 ± 4.35%. Also, the inhibition at 1 µM at Kir4.1 (setting [2]) turned out to be 86.1 ± 3.36%; at Kir4.1 (setting [3]), 78.7 ± 8.16%. The inhibition at 10 µM at Kir4.1 (setting [4]) came to 97.44 ± 0.6%; on Kir4.1 (setting [5]) it was 92.6 ± 5.66%. Also, in assay [1] (setting [6]), the IC50 came to 8.74 ± 0.36 µM.

Regarding `c1cc(NCCCN2CCOCC2)nc(Nc2ccc3oc4ccccc4c3c2)c1` [JX3220, N^2-(dibenzo[b,d]furan-2-yl)-N^6-(3-morpholinopropyl)pyridine-2,6-diamine], the figures for the inhibition at 10 µM at Kir4.1 (setting [4]) and on Kir4.1 (setting [5]) were 2.61 ± 1.87% and 3.98 ± 1.6%, respectively. For the same compound, the IC50 in assay [1] (setting [6]) was found to be 8.74 ± 0.36 µM.

As for `c1ccc2c(c1)oc1ccc(Nc3cncc(NCCCN4CCOCC4)c3)cc12` [JX3221, N^3-(dibenzo[b,d]furan-2-yl)-N^5-(3-morpholinopropyl)pyridine-3,5-diamine], the figures for the inhibition at 1 µM at Kir4.1 (setting [2]) and at Kir4.1 (setting [3]) were -2.41 ± 3.2% and -4.84 ± 3.28%, respectively. The inhibition at 10 µM was 96.6 ± 1.14% at Kir4.1 (setting [4]) and 90.4 ± 5.72% at Kir4.1 (setting [5]). In assay [1] (setting [6]), the half-inhibitory concentration (IC50) is 21.2 ± 1.06 µM.

`c1ccc2c(c1)oc1ccc(Nc3cc(NCCCN4CCOCC4)ncn3)cc12` [JX3222, N^4-(dibenzo[b,d]furan-2-yl)-N^6-(3-morpholinopropyl)pyrimidine-4,6-diamine]: the inhibition at 1 µM at Kir4.1 (setting [2]) is 5.55 ± 2.74%; on Kir4.1 (setting [3]), -0.94 ± 6.65%. Moreover, the inhibition at 10 µM was 87.3 ± 6.4% at Kir4.1 (setting [4]) and 71.1 ± 6.03% at Kir4.1 (setting [5]). Further, the half-inhibitory concentration (IC50) in assay [1] (setting [6]) came to 44 ± 1.48 µM.

Turning to `c1ccc2c(c1)oc1ccc(Nc3cncc(NCCCN4CCOCC4)n3)cc12` [JX3223, N^2-(dibenzo[b,d]furan-2-yl)-N^6-(3-morpholinopropyl)pyrazine-2,6-diamine], the “Kir4.1 Inhibition ± SD (%) at 10 μM, +50 mV” value at Kir4.1 (+50 mV, 10 µM) is 7.01 ± 4.11%. Moreover, the “Kir4.1 Inhibition ± SD (%) at 10 μM, -120 mV” value on Kir4.1 (-120 mV) amounted to 6.62 ± 0.29%. Besides, the 50% inhibitory concentration (IC50) in assay [1] (setting [6]) amounted to 23 ± 3.41 µM.

Regarding `c1ccc2c(c1)oc1ccc(Nc3cncc(NCCCN4CCOCC4)n3)cc12` [JX3224, N^2-(dibenzo[b,d]furan-2-yl)-N^6-(3-morpholinopropyl)pyrazine-2,6-diamine], the “Kir4.1 Inhibition ± SD (%) at 10 μM, +50 mV” value at Kir4.1 (+50 mV, 10 µM) is recorded as 96.66 ± 1.05%. Also, the “Kir4.1 Inhibition ± SD (%) at 10 μM, -120 mV” value on Kir4.1 (-120 mV) was determined as 87.90 ± 2.73%. The inhibition at 1 µM was 29.1 ± 11.8% on Kir4.1 (setting [2]) and 11.3 ± 5.07% at Kir4.1 (setting [3]). Also, the IC50 in assay [1] (MDA-MB-468 breast cancer cells) was found to be 21.6 ± 0.8 µM.

In the case of `c1ccc2c(c1)oc1ccc(Nc3cnc(NCCCN4CCOCC4)cn3)cc12` [JX3225, N^2-(dibenzo[b,d]furan-2-yl)-N^5-(3-morpholinopropyl)pyrazine-2,5-diamine], the inhibition at 1 µM on Kir4.1 (setting [2]) came out at 3.73 ± 5.09%; at Kir4.1 (setting [3]) it was 8.36 ± 3.94%. Besides, the inhibition at 10 µM is 96.9 ± 1.28% on Kir4.1 (setting [4]) and 94.3 ± 2.6% on Kir4.1 (setting [5]). In addition, the IC50 in assay [1] (setting [6]) is 31.6 ± 5.27 µM.

`c1ccc2c(c1)oc1ccc(N[C@H]3CC[C@@H](NCCCN4CCOCC4)CC3)cc12` [JX3226, (1s,4s)-N^1-(dibenzo[b,d]furan-2-yl)-N^4-(3-morpholinopropyl)cyclohexane-1,4-diamine]: on Kir4.1 (+50 mV), the “Kir4.1 Inhibition ± SD (%) at 1 μM, +50 mV” value turned out to be 3.35 ± 4.46% and the “Kir4.1 Inhibition ± SD (%) at 10 μM, +50 mV” value came out at 94.03 ± 1.98%. Further, at Kir4.1 (-120 mV), the “Kir4.1 Inhibition ± SD (%) at 1 μM, -120 mV” value is 6.91 ± 6.13% and the “Kir4.1 Inhibition ± SD (%) at 10 μM, -120 mV” value worked out at 86.98 ± 0.69%. Besides, the IC50 in assay [1] (MDA-MB-468 breast cancer cells) turned out to be 19.5 ± 1.64 µM.

Take `c1ccc2c(c1)oc1ccc(NC34C[C@@H]5C[C@@H](CC(NCCCN6CCOCC6)(C5)C3)C4)cc12` [JX3227, (1s,3r,5R,7S)-N^1-(dibenzo[b,d]furan-2-yl)-N^3-(3-morpholinopropyl)adamantane-1,3-diamine]: on Kir4.1 (+50 mV), the “Kir4.1 Inhibition ± SD (%) at 1 μM, +50 mV” value was determined as 9.02 ± 5.70% and the “Kir4.1 Inhibition ± SD (%) at 10 μM, +50 mV” value is given as 88.04 ± 4.11%. Further, at Kir4.1 (-120 mV), the “Kir4.1 Inhibition ± SD (%) at 1 μM, -120 mV” value was determined as 7.11 ± 1.17% and the “Kir4.1 Inhibition ± SD (%) at 10 μM, -120 mV” value turned out to be 64.42 ± 3.05%. Moreover, in assay [1] (MDA-MB-468 breast cancer cells), the IC50 was more than 50 µM.
